# Laboratory results reported in publication PMC3280276 (PLoS ONE, 2012).
# System: C-terminal peptide […]
# Assay type: binding
substance,measurement,value
saporin,interaction with C-terminal peptide […],did not observe any measurable interactions
